How the values were obtained:
[1] = biological target: Serine/threonine-protein kinase TAO3 (Homo sapiens) (UniProt Q9H2K8); conditions: Compound concentration 100.0 nM
[2] = biological target: Activin receptor type-1-like (Homo sapiens) (UniProt P37023); conditions: Compound concentration 100.0 nM
[3] = biological target: Receptor tyrosine-protein kinase erbB-2 (Homo sapiens) (UniProt P04626); conditions: Compound concentration 100.0 nM
[4] = biological target: Tyrosine-protein kinase ABL2 (Homo sapiens) (UniProt P42684); conditions: Compound concentration 100.0 nM
[5] = biological target: Dual specificity mitogen-activated protein kinase kinase 2 (Homo sapiens) (UniProt P36507); conditions: Compound concentration 100.0 nM
[6] = biological target: cGMP-dependent protein kinase 1 (Homo sapiens) (UniProt Q13976); conditions: Compound concentration 100.0 nM
[7] = biological target: Serine/threonine-protein kinase TBK1 (Homo sapiens) (UniProt Q9UHD2); conditions: Compound concentration 100.0 nM
[8] = biological target: Protein kinase C theta type (Homo sapiens) (UniProt Q04759); conditions: Compound concentration 100.0 nM
Protein kinase C theta type (Homo sapiens), sequence (Q04759 whole entry, looked up): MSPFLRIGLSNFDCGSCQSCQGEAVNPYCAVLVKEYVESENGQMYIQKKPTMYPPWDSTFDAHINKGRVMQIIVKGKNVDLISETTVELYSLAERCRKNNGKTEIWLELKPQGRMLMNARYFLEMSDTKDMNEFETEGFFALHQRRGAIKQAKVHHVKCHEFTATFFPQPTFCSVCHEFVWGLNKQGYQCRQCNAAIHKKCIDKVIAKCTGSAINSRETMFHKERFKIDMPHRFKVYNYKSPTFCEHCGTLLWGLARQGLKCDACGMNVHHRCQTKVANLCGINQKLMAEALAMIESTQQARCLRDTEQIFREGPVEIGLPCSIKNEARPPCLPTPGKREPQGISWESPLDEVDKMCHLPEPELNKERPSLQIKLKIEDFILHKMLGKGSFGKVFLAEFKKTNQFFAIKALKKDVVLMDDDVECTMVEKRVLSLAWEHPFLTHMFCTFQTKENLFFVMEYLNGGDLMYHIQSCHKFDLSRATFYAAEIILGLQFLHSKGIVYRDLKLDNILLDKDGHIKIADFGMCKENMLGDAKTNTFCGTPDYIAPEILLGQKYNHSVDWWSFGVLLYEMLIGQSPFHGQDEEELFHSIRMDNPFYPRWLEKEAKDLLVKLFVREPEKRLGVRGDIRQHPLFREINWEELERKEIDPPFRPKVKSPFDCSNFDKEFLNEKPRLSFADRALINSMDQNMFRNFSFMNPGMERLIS

[9] = system: Tyrosine-protein kinase ABL1 (Homo sapiens), P00519 [Q252H]; conditions: Compound concentration 100.0 nM
[10] = biological target: Mitogen-activated protein kinase 3 (Homo sapiens) (UniProt P27361); conditions: Compound concentration 100.0 nM
Mitogen-activated protein kinase 3 (Homo sapiens), sequence (P27361 whole entry): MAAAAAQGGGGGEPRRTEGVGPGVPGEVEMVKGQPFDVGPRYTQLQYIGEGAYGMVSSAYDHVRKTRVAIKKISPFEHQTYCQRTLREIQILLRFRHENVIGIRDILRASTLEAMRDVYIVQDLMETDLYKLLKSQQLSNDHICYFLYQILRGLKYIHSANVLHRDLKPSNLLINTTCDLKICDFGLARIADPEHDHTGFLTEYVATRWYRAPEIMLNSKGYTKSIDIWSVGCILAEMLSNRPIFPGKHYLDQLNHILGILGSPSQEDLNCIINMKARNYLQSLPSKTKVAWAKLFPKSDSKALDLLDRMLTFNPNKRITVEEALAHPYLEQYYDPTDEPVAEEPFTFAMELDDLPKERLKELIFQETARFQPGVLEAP

[11] = biological target: Mitogen-activated protein kinase kinase kinase kinase 2 (Homo sapiens) (UniProt Q12851); conditions: Compound concentration 100.0 nM
[12] = biological target: Phosphatidylinositol 5-phosphate 4-kinase type-2 beta (Homo sapiens) (UniProt P78356); conditions: Compound concentration 100.0 nM
Phosphatidylinositol 5-phosphate 4-kinase type-2 beta (Homo sapiens), sequence (P78356 whole entry): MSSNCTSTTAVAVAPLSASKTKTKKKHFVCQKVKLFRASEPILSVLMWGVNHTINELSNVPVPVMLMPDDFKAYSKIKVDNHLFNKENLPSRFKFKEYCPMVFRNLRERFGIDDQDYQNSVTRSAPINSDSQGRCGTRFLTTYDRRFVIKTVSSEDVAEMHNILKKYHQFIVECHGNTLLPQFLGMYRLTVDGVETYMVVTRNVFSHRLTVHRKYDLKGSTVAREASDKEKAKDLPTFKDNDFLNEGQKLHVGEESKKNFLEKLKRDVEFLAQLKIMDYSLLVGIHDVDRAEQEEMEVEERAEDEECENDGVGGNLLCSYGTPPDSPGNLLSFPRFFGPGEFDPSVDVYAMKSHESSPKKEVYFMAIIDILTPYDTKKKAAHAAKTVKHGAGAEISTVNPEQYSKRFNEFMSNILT

[13] = biological target: Alpha-2A adrenergic receptor (Homo sapiens) (UniProt P08913); conditions: Compound concentration 10.0 uM
[14] = biological target: Cyclin-dependent kinase 7 (Homo sapiens) (UniProt P50613); conditions: Compound concentration 100.0 nM
[15] = biological target: SNF-related serine/threonine-protein kinase (Homo sapiens) (UniProt Q9NRH2); conditions: Compound concentration 100.0 nM
[16] = biological target: Ribosomal protein S6 kinase alpha-1 (Homo sapiens) (UniProt Q15418); conditions: Compound concentration 100.0 nM
[17] = biological target: Cyclin-dependent kinase 3 (Homo sapiens) (UniProt Q00526); conditions: Compound concentration 100.0 nM
[18] = biological target: Serine/threonine-protein kinase WNK3 (Homo sapiens) (UniProt Q9BYP7); conditions: Compound concentration 100.0 nM
[19] = biological target: Microtubule-associated serine/threonine-protein kinase 1 (Homo sapiens) (UniProt Q9Y2H9); conditions: Compound concentration 100.0 nM
[20] = biological target: cGMP-dependent protein kinase 2 (Homo sapiens) (UniProt Q13237); conditions: Compound concentration 100.0 nM
[21] = species: Rattus norvegicus; conditions: Compound concentration 10.0 uM
[22] = biological target: Myosin-IIIa (Homo sapiens) (UniProt Q8NEV4); conditions: Compound concentration 100.0 nM
Myosin-IIIa (Homo sapiens), sequence (Q8NEV4 whole entry): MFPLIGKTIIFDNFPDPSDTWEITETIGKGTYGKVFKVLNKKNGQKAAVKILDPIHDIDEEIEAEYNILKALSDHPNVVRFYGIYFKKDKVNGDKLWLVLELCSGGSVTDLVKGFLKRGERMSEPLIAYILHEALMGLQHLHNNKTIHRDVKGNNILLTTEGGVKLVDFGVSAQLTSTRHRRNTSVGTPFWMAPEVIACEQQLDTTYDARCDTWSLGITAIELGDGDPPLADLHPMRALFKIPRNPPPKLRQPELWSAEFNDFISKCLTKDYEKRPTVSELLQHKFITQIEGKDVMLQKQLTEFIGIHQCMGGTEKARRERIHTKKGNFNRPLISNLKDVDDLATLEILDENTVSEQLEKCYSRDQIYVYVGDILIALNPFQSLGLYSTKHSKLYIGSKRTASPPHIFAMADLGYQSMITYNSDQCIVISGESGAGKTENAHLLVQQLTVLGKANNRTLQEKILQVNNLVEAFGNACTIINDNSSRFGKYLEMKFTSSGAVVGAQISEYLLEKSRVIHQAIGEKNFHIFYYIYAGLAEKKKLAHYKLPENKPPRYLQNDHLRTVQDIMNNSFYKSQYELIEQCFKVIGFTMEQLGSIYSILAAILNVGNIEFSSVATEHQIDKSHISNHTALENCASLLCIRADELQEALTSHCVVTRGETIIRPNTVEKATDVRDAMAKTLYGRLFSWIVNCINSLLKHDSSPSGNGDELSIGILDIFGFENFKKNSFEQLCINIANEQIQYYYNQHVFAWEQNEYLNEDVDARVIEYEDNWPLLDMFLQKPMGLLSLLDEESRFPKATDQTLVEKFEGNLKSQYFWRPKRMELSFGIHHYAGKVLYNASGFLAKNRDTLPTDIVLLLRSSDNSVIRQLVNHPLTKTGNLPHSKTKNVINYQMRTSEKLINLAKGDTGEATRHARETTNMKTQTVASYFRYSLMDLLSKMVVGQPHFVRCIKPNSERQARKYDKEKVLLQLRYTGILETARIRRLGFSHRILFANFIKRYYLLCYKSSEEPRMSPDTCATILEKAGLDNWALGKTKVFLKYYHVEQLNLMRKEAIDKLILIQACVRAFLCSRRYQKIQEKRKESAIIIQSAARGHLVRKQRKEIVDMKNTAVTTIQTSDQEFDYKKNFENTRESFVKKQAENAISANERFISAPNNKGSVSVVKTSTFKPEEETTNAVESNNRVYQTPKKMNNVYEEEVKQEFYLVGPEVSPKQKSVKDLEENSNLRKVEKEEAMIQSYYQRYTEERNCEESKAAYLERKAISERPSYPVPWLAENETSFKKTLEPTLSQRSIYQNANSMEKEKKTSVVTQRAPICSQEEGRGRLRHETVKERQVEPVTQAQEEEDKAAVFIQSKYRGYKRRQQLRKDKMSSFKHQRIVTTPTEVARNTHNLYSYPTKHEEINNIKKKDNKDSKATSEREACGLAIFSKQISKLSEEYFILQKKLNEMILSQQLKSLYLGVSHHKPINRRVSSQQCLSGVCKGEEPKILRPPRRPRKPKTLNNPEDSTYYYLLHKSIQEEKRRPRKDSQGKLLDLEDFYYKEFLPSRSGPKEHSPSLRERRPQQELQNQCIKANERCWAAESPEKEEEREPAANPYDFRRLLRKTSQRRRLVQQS

[23] = biological target: Cyclin-dependent kinase 18 (Homo sapiens) (UniProt Q07002); conditions: Compound concentration 100.0 nM
[24] = system: Mast/stem cell growth factor receptor Kit (Homo sapiens), P10721 [V559D,V654A]; conditions: Compound concentration 100.0 nM
Mast/stem cell growth factor receptor Kit (Homo sapiens), P10721 [V559D,V654A], sequence (P10721 whole entry V559D/V654A): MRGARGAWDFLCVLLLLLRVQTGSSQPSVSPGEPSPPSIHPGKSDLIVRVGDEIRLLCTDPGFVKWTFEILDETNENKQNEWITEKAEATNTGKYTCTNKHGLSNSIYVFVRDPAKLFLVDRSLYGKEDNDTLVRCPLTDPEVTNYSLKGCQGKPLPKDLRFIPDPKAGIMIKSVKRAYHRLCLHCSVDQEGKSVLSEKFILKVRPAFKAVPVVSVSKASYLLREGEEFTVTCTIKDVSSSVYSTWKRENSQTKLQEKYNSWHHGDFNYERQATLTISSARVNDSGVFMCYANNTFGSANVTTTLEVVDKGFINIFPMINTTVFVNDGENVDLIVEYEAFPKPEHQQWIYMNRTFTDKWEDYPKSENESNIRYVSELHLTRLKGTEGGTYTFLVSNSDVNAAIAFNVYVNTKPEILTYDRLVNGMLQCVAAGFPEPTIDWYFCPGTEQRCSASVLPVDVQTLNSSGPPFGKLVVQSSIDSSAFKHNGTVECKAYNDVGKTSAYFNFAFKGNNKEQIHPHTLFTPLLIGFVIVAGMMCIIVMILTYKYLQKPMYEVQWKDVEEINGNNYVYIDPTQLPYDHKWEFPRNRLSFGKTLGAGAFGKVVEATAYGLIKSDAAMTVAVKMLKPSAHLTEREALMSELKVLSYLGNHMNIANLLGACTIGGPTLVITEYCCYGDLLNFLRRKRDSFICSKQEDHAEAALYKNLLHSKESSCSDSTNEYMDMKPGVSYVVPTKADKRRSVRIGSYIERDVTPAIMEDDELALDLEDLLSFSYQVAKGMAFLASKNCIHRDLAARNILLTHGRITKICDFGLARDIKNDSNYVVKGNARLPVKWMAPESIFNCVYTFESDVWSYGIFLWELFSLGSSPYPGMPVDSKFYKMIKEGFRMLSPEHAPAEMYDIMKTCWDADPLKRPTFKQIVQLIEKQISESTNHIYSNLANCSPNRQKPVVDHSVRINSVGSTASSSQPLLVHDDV

[25] = biological target: Angiopoietin-1 receptor (Homo sapiens) (UniProt Q02763); conditions: Compound concentration 100.0 nM
[26] = biological target: Receptor-type tyrosine-protein kinase FLT3 (Homo sapiens) (UniProt P36888); conditions: Compound concentration 100.0 nM
[27] = system: Tyrosine-protein kinase ABL1 (Homo sapiens), P00519 [H396P]; conditions: Compound concentration 100.0 nM
[28] = biological target: Dual specificity tyrosine-phosphorylation-regulated kinase 1B (Homo sapiens) (UniProt Q9Y463); conditions: Compound concentration 100.0 nM
[29] = biological target: Tyrosine-protein kinase Fgr (Homo sapiens, UniProt P09769); conditions: Compound concentration 100.0 nM
[30] = biological target: Serine/threonine-protein kinase Nek10 (Homo sapiens) (UniProt Q6ZWH5); conditions: Compound concentration 100.0 nM
[31] = biological target: Sodium-dependent dopamine transporter (Homo sapiens) (UniProt Q01959); conditions: Compound concentration 10.0 uM
[32] = biological target: Phosphatidylinositol 3-kinase catalytic subunit type 3 (Homo sapiens) (UniProt Q8NEB9); conditions: Compound concentration 100.0 nM
[33] = system: Receptor-type tyrosine-protein kinase FLT3 (Homo sapiens), P36888 [R834Q]; conditions: Compound concentration 100.0 nM
[34] = biological target: Mitogen-activated protein kinase 7 (Homo sapiens) (UniProt Q13164); conditions: Compound concentration 100.0 nM
[35] = biological target: Alpha-2B adrenergic receptor (Homo sapiens) (UniProt P18089); conditions: Compound concentration 10.0 uM
[36] = biological target: Serine/threonine-protein kinase Nek6 (Homo sapiens) (UniProt Q9HC98); conditions: Compound concentration 100.0 nM
[37] = system: Tyrosine-protein kinase ABL1 (Homo sapiens), P00519 [M351T]; conditions: Compound concentration 100.0 nM
[38] = biological target: TRAF2 and NCK-interacting protein kinase (Homo sapiens) (UniProt Q9UKE5); conditions: Compound concentration 100.0 nM
[39] = system: Tyrosine-protein kinase ABL1 (Homo sapiens), P00519 [T315I]; conditions: Compound concentration 100.0 nM
[40] = biological target: Inhibitor of nuclear factor kappa-B kinase subunit beta (Homo sapiens) (UniProt O14920); conditions: Compound concentration 100.0 nM
[41] = biological target: Serine/threonine-protein kinase PAK 4 (Homo sapiens) (UniProt O96013); conditions: Compound concentration 100.0 nM
[42] = biological target: Cyclin-dependent kinase 8 (Homo sapiens) (UniProt P49336); conditions: Compound concentration 100.0 nM
[43] = biological target: Serine/threonine-protein kinase Nek9 (Homo sapiens) (UniProt Q8TD19); conditions: Compound concentration 100.0 nM
[44] = system: Epidermal growth factor receptor (Homo sapiens), P00533 [L858R,T790M]; conditions: Compound concentration 100.0 nM
[45] = biological target: Serine/threonine-protein kinase LATS2 (Homo sapiens) (UniProt Q9NRM7); conditions: Compound concentration 100.0 nM
[46] = biological target: Cyclin-dependent kinase 4 (Homo sapiens) (UniProt P11802); conditions: Compound concentration 100.0 nM

Serine/threonine-protein kinase TAO3 (Homo sapiens), sequence (Q9H2K8 whole entry): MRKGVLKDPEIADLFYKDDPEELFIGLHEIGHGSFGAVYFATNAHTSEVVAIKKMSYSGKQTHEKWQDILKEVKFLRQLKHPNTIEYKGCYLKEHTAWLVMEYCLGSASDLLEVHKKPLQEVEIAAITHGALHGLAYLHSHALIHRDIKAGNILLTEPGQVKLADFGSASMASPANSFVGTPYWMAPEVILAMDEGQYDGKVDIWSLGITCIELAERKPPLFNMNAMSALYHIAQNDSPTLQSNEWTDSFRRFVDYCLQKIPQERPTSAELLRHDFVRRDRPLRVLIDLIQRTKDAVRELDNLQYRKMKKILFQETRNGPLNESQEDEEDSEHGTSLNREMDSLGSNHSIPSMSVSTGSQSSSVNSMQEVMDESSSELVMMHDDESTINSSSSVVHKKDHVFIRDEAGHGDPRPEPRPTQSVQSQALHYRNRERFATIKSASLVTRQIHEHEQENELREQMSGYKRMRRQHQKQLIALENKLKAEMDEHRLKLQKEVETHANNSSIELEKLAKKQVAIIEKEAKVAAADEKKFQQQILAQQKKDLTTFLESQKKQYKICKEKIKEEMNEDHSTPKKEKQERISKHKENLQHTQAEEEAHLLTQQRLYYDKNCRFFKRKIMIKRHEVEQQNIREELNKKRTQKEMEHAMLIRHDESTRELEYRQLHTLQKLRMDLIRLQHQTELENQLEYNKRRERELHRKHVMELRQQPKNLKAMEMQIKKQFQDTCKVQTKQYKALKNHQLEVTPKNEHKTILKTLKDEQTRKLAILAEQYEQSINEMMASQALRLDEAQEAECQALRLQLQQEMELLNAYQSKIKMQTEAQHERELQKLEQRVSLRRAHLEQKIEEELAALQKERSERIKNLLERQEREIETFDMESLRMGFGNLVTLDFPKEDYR

Cc1ccc(-c2cnc([C@@]3(O)CC[C@H](C(=O)O)C(C)(C)C3)s2)cc1Nc1cccc(C(F)(F)F)n1 [MRL-SYKi-NC]
residual activity [1]: 98.6%
residual activity [2]: 100%
residual activity [3]: 100%
residual activity [4]: 98.3%
residual activity [5]: 87%
residual activity [6]: 77.5%
residual activity [7]: 86.4%
residual activity [8]: 100%
residual activity [9]: 82.2%
residual activity [10]: 100%
residual activity [11]: 100%
residual activity [12]: 61.3%
inhibition [13]: 34.5%
residual activity [14]: 86.2%
residual activity [15]: 90.1%
residual activity [16]: 100%
residual activity [17]: 92.9%
residual activity [18]: 0%
residual activity [19]: 100%
residual activity [20]: 69.9%
inhibition [21]: 71.8%
residual activity [22]: 70.1%
residual activity [23]: 100%
residual activity [24]: 100%
residual activity [25]: 95.2%
residual activity [26]: 100%
residual activity [27]: 95.4%
residual activity [28]: 97.4%
residual activity [29]: 100%
residual activity [30]: 97.3%
inhibition [31]: 71%
residual activity [32]: 67.2%
residual activity [33]: 70.5%
residual activity [34]: 100%
inhibition [35]: 27%
residual activity [36]: 89.7%
residual activity [37]: 87%
residual activity [38]: 75.8%
residual activity [39]: 88%
residual activity [40]: 43.1%
residual activity [41]: 100%
residual activity [42]: 78.7%
residual activity [43]: 80.3%
residual activity [44]: 100%
residual activity [45]: 90.6%
residual activity [46]: 100%

Cc1cc(Nc2nccc(C)n2)cc(-c2cnc([C@@]3(O)CC[C@H](C(=O)O)C(C)(C)C3)s2)c1 [MRL-SYKi]
residual activity [1]: 100%
residual activity [2]: 66.5%
residual activity [3]: 89.6%
residual activity [4]: 85.8%
residual activity [5]: 89.4%
residual activity [6]: 100%
residual activity [7]: 55.5%
residual activity [8]: 39.9%
residual activity [9]: 32.4%
residual activity [10]: 98.9%
residual activity [11]: 100%
residual activity [12]: 79.6%
inhibition [13]: -2.14%
residual activity [14]: 100%
residual activity [15]: 100%
residual activity [16]: 100%
residual activity [17]: 100%
residual activity [18]: 100%
residual activity [19]: 100%
residual activity [20]: 100%
inhibition [21]: 3.63%
residual activity [22]: 100%
residual activity [23]: 100%
residual activity [24]: 100%
residual activity [25]: 99%
residual activity [26]: 100%
residual activity [27]: 53.9%
residual activity [28]: 69.4%
residual activity [29]: 100%
residual activity [30]: 53.1%
inhibition [31]: 39.3%
residual activity [32]: 99.6%
residual activity [33]: 96.3%
residual activity [34]: 83.6%
inhibition [35]: -7.14%
residual activity [36]: 100%
residual activity [37]: 78.3%
residual activity [38]: 100%
residual activity [39]: 100%
residual activity [40]: 100%
residual activity [41]: 89.8%
residual activity [42]: 100%
residual activity [43]: 92.8%
residual activity [44]: 46.2%
residual activity [45]: 100%
residual activity [46]: 85.4%

Source: ChEMBL document CHEMBL4507285, “Data for DCP probe MRL-SYKi” (2021)
